Laboratory results from article PMC10541198, “Specific quinone reductase 2 inhibitors reduce metabolic burden and reverse Alzheimer’s disease phenotype in mice” (The Journal of Clinical Investigation, 2023).
Values joined by “and” are separate entries in the source; they are usually repeats but may differ in a detail not shown here. Identical values can stand only once. Like-named read-outs stand apart in the source and are kept apart here.

Test: Pharmacokinetic study, IV and PO, plasma, brain and liver
Type: in vivo, mouse
Conditions: for tolerability / adverse effects: 50 mg/kg p.o. or 10 mg/kg i.v., up to 24 hours; for Plasma concentration, Mean: BQL = below LLOQ (10 ng/ml); for k el: read-out: Kel (Lambda_z) (converted); for MRT inf: read-out: MRT (MRTinf) (converted); for MRT last: read-out: MRT (MRTlast) (converted); for AUC(0-inf): read-out: AUC0→∞ (AUCINF_obs) (converted)
Procedure: The purpose of this study was to determine the pharmacokinetic characteristics of compound NG-537 in C57BL/6J mice following intravenous (IV) and peroral (PO) administration. Levels of NG-537 were determined in blood plasma , brain and liver over time after a single dose .
3.1 Reagents and consumables
DMSO Chromasolv Plus, HPLC grade, ≥99.7% (Sigma-Aldrich, USA; Cat #34869) Acetonitrile Chromasolv, gradient grade, for HPLC, ≥99.9% (Sigma-Aldrich, USA; Cat #34851) Methanol Chromasolv Plus, for HPLC, ≥99.9% (Sigma -Aldrich, USA; Cat 34860) Formic acid for mass spectrometry, ~98% (Fluka, USA; Cat #94318)
Physiological saline (“Yuria -Pharm”, Ukraine, S/# AA13249/1 -1)
Amyl alcohol (UOS, Ukraine) […]
Compound Thiamethoxam was used as internal standard (IS).
Compound NG-537 was supplied as dry powder. The batches of working formulations were prepared 20 min prior to the in vivo study. The vehicle was saline. To prepare the formulation, saline was added to the test compound. The mixture was vortexed for 1 min.
Gradient HPLC system (Shimadzu, Japan)
MS/MS detector API 3000 PE with TurboIonSpray Electrospray module (PE Sciex, Canada) VWR Membrane Nitrogen Generators N2-04-L1466. nitrogen purity 99%+ (VWR, USA) Water purification system Millipore Milli-Q Gradient A10 (Millipore, France) Fixed Speed Vortex Mixer “IKA Lab Dancer” (IKA®-Werke GmbH & Co. KG, Germany; IP-40) Centrifuge 4-15C (Qiagen) (Sigma, Germany)
Ultrasonic bath (Daihan, Korea; WUC-A03H)
(1 picture or pasted object on this page, not shown here)
Study design, animal selection, handling and treatment were all in accordance with the Enamine PK study protocols and the Institutional Animal Care and Use Guidelines. Animal treatment and plasma samples preparation were conducted by the Animal Laboratory personnel at Enamine/Bienta. Male C57BL/6J mice (9-11 weeks old, body weight from 26.1 g to 39.8 g and average body weight across all groups 31.9 g SD = 3.3 g) were used in this study. The animals were randomly assigned to the treatment groups before the pharmacokinetic study; all animals were fasted for 4 h before dosing. Seven time points (5, 15, 30, 60, 240, 480, and 1440 min) were set for this pharmacokinet ic study. Each of the time point treatment group included 4 animals. There was also control group of one animal . Dosing was done according to the treatment schedule outlined in Table 1. Mice were injected IP with 2,2,2-tribromoethanol at the dose of 250 mg/kg prior to drawing the blood. Blood collection was performed from the left ventricle of the heart in tubes containing 10 μl of heparin solution (400 ui/ml). The brain and liver were perfused before sampling. The animal died due to exsanguination during perfusion under anesthesia. All samples were immediately processed, flash-frozen and stored at -70°C until subsequent analysis.
Number of Delivery Target Dose Target Dose Target Dose
Mice Compound ID Formulation Route Level Concentration Volume […]
Plasma samples (40 μl) were mixed with 200 μl of IS solution. After mixing by pipetting and centrifuging for 4 min at 6,000 rpm, 2 μl of each supernatant was injected into LC-MS/MS system.
Solution of compound Thiamethoxam (400 ng/ml in water-methanol mixture 1:9, v/v) was used as internal standard (IS) for quantification of NG-537 in plasma samples.
Analyses of samples were conducted by the Bioanalytical Laboratory personnel at Enamine/Bienta.
Concentrations of NG-537 were determined using high performance liquid chromatography/tandem mass spectrometry (HPLC-MS/MS). Shimadzu HPLC system consisted 2 isocratic pumps LC-10ADvp, an autosampler SIL-20AC, a sub-controller FCV-14AH and a degasser DGU-14A. Mass spectrometric analysis was performed using API 3000 (triple-quadrupole) instrument from AB Sciex (Canada) with an electro -spray (ESI) interface. The data acquisition and system control was performed using Analyst 1.5.2 software (AB […]
3.6 HPLC-MS/MS Conditions
Chromatographic Conditions: […]

[1] = IV 10 mg/kg, 15 min, listed as NG-537, 10 mg/kg
[2] = PO 50 mg/kg, 15 min, listed as NG-537, 50 mg/kg
[3] = male, C57BL/6J, mouse, brain, PO 50 mg/kg
[4] = male, C57BL/6J, mouse, liver, PO 50 mg/kg
[5] = male, C57BL/6J, mouse, plasma, IV 10 mg/kg
[6] = male, C57BL/6J, mouse, plasma, PO 50 mg/kg

Cc1ccc(-c2cn3cccc(C)c3n2)cc1S(=O)(=O)N1CCNCC1 [YB-537]
tolerability / adverse effects: nontoxic and well tolerated
tolerability / adverse effects (listed as NG-537): No obvious adverse effects were observed
bioavailability (C57BL/6J, mouse, in vivo, PO 50 mg/kg vs IV 10 mg/kg, male mice): 82%
Liver concentration, Mouse A-D [1]: 17352 ng/g and 12944 ng/g and 10288 ng/g
Plasma concentration, Mouse A-D [1]: 1001 ng/mL and 1370 ng/mL and 836 ng/mL
Plasma concentration, Mean (IV 10 mg/kg, 240 min): BQL
Plasma concentration, Mouse A-D (IV 10 mg/kg, 240 min, all four BQL): BQL
Plasma concentration, Mean (IV 10 mg/kg, 480 min): BQL
Plasma concentration, Mouse A-D (IV 10 mg/kg, 480 min, all four BQL): BQL
Plasma concentration, Mean (IV 10 mg/kg, 1440 min): BQL
Plasma concentration, Mouse A-D (IV 10 mg/kg, 1440 min, all four BQL): BQL
Brain concentration, Mouse A-D [2]: 227 ng/g and 139 ng/g and 162 ng/g
Plasma concentration, Mouse A-D [2]: 1721 ng/mL and 2715 ng/mL and 1977 ng/mL
Plasma concentration, Mouse A-D (PO 50 mg/kg, 30 min, listed as NG-537, 50 mg/kg): 1258 ng/mL and 2296 ng/mL and 1618 ng/mL
Brain concentration, Mouse A-D (PO 50 mg/kg, 60 min, listed as NG-537, 50 mg/kg): 158 ng/g and 264 ng/g and 241 ng/g
Plasma concentration, Mean (PO 50 mg/kg, 480 min): BQL
Plasma concentration, Mean (PO 50 mg/kg, 1440 min): BQL
Plasma concentration, Mouse A-D (PO 50 mg/kg, 1440 min, all four BQL): BQL
AUC0→t=240min (AUClast) (brain, PO 50 mg/kg): 30500 ng·min/g
AUC0→∞ (AUCINF_obs) (brain, PO 50 mg/kg): 33100 ng·min/g
time of peak brain concentration after oral administration (brain, PO 50 mg/kg): approximately one
time of peak brain concentration following p.o. administration (brain, PO 50 mg/kg): 1 h
peak brain concentration, molar equivalent (brain, oral administration, equivalent of 203 ng/g): approximately 500 nM
AUC0→t=240min (AUClast) (liver, PO 50 mg/kg): 5530000 ng·min/g
AUC0→∞ (AUCINF_obs) (liver, PO 50 mg/kg): 5850000 ng·min/g
concentration at 15 min (male, C57BL/6J, mouse, brain, iv, 10 mg/kg, IV 10 mg/kg, 15 min, read-out: Brain concentration, Mean): 1070 ng/g
concentration at 15 min (male, C57BL/6J, mouse, brain, po, 50 mg/kg, PO 50 mg/kg, 15 min, read-out: Brain concentration, Mean): 172 ng/g
concentration at 15 min (male, C57BL/6J, mouse, brain, po, 50 mg/kg, PO 50 mg/kg, 15 min, read-out: Brain concentration, Mouse A-D): 161 ng/g
concentration at 60 min (male, C57BL/6J, mouse, brain, po, 50 mg/kg, PO 50 mg/kg, 60 min, read-out: Brain concentration, Mean): 203 ng/g
concentration at 60 min (male, C57BL/6J, mouse, brain, po, 50 mg/kg, PO 50 mg/kg, 60 min, read-out: Brain concentration, Mouse A-D): 148 ng/g
concentration at 240 min (male, C57BL/6J, mouse, brain, po, 50 mg/kg, PO 50 mg/kg, 240 min, BQL = below LLOQ, read-out: Brain concentration, Mouse A-D): 37 ng/g
concentration at 240 min (male, C57BL/6J, mouse, brain, po, 50 mg/kg, PO 50 mg/kg, 240 min, read-out: Brain concentration, Mean): 28 ng/g
half-life (male, C57BL/6J, mouse, in vivo, po, 50 mg/kg, brain, PO 50 mg/kg, read-out: T1/2 (HL_Lambda_z)): 63.5 min
half-life (male, C57BL/6J, mouse, in vivo, po, 50 mg/kg, mouse brain, acute oral dosing, read-out: clearance half life (converted)): ~60 min
concentration at 15 min (male, C57BL/6J, mouse, liver, iv, 10 mg/kg, IV 10 mg/kg, 15 min, read-out: Liver concentration, Mean): 13100 ng/g
concentration at 15 min (male, C57BL/6J, mouse, liver, iv, 10 mg/kg, IV 10 mg/kg, 15 min, read-out: Liver concentration, Mouse A-D): 12000 ng/g
concentration at 15 min (male, C57BL/6J, mouse, liver, po, 50 mg/kg, PO 50 mg/kg, 15 min, read-out: Liver concentration, Mean): 67700 ng/g
concentration at 60 min (male, C57BL/6J, mouse, liver, po, 50 mg/kg, PO 50 mg/kg, 60 min, read-out: Liver concentration, Mean): 28000 ng/g
concentration at 240 min (male, C57BL/6J, mouse, liver, po, 50 mg/kg, PO 50 mg/kg, 240 min, read-out: Liver concentration, Mean): 3900 ng/g
concentration at 5 min (male, C57BL/6J, mouse, plasma, iv, 10 mg/kg, IV 10 mg/kg): 2010 ng/mL
concentration at 15 min (male, C57BL/6J, mouse, plasma, iv, 10 mg/kg, IV 10 mg/kg, 15 min, read-out: Plasma concentration, Mean): 1020 ng/mL
concentration at 15 min (male, C57BL/6J, mouse, plasma, iv, 10 mg/kg, IV 10 mg/kg, 15 min, read-out: Plasma concentration, Mouse A-D): 863 ng/mL
concentration at 30 min (male, C57BL/6J, mouse, plasma, iv, 10 mg/kg, IV 10 mg/kg, 30 min, read-out: Plasma concentration, Mean): 432 ng/mL
concentration at 60 min (male, C57BL/6J, mouse, plasma, iv, 10 mg/kg, IV 10 mg/kg, 60 min, read-out: Plasma concentration, Mean): 191 ng/mL
concentration at 5 min (male, C57BL/6J, mouse, plasma, po, 50 mg/kg, PO 50 mg/kg): 451 ng/mL
concentration at 15 min (male, C57BL/6J, mouse, plasma, po, 50 mg/kg, PO 50 mg/kg, 15 min, read-out: Plasma concentration, Mean): 2030 ng/mL
concentration at 15 min (male, C57BL/6J, mouse, plasma, po, 50 mg/kg, PO 50 mg/kg, 15 min, read-out: Plasma concentration, Mouse A-D): 1720 ng/mL
concentration at 30 min (male, C57BL/6J, mouse, plasma, po, 50 mg/kg, PO 50 mg/kg, 30 min, read-out: Plasma concentration, Mean): 1720 ng/mL
concentration at 30 min (male, C57BL/6J, mouse, plasma, po, 50 mg/kg, PO 50 mg/kg, 30 min, read-out: Plasma concentration, Mouse A-D): 1730 ng/mL
concentration at 60 min (male, C57BL/6J, mouse, plasma, po, 50 mg/kg, PO 50 mg/kg, 60 min, read-out: Plasma concentration, Mean): 1130 ng/mL
concentration at 240 min (male, C57BL/6J, mouse, plasma, po, 50 mg/kg, PO 50 mg/kg, 240 min, read-out: Plasma concentration, Mean): 151 ng/mL
concentration at 480 min (male, C57BL/6J, mouse, plasma, po, 50 mg/kg, PO 50 mg/kg, 480 min, three BQL, 15 marked as Grubbs outlier, read-out: Plasma concentration, Mouse A-D): 15 ng/mL
Tmax [3]: 60 min
Cmax (male, C57BL/6J, mouse, brain, PO 50 mg/kg, read-out: Cmax (peak concentration)): 203 ng/g
k el [3]: 0.000182 s⁻¹
MRT inf [3]: 88.2 min
MRT last [3]: 67.5 min
Tmax [4]: 15 min
Cmax (male, C57BL/6J, mouse, liver, PO 50 mg/kg, read-out: Cmax): 67700 ng/g
k el [4]: 0.000203 s⁻¹
MRT inf [4]: 69.5 min
MRT last [4]: 54.9 min
half-life (male, C57BL/6J, mouse, liver, PO 50 mg/kg, read-out: T1/2 (HL_Lambda_z)): 56.8 min
C0 [5]: 2820 ng/mL
AUC(0-t) (male, C57BL/6J, mouse, plasma, IV 10 mg/kg, read-out: AUC0→t=60min (AUClast) (converted)): 790 ng·h/mL
AUC(0-inf) [5]: 867 ng·h/mL
clearance (male, C57BL/6J, mouse, plasma, IV 10 mg/kg, read-out: CL (Cl_obs)): 190 mL/min/kg
k el [5]: 0.000695 s⁻¹
MRT inf [5]: 21.4 min
MRT last [5]: 15.4 min
half-life (male, C57BL/6J, mouse, plasma, IV 10 mg/kg, read-out: T1/2 (HL_Lambda_z)): 16.6 min
Vd (male, C57BL/6J, mouse, plasma, IV 10 mg/kg, read-out: Vd (Vz_obs)): 5 L/kg
Tmax [6]: 15 min
AUC(0-t) (male, C57BL/6J, mouse, plasma, PO 50 mg/kg, read-out: AUC0→t=240min (AUClast) (converted)): 3330 ng·h/mL
AUC(0-inf) [6]: 3550 ng·h/mL
Cmax (male, C57BL/6J, mouse, plasma, PO 50 mg/kg, read-out: Cmax): 2030 ng/mL
k el [6]: 0.000192 s⁻¹
MRT inf [6]: 76.2 min
MRT last [6]: 59.8 min
Cmax (plasma, IV 10 mg/kg (summary table)): 2010 ng/ml(g)
